Here are results for 12 molecules from patent US5441973A, “N-acyl-4-phenyl-pyrrolidin-2-ones and method for preparing” (Arzneimittelwerk Dresden G.m.b.H., priority 1990, dated 1995).

Some results are limits rather than exact numbers.

Assay in one data set: not given
The conditions noted are these: from prior patents / known; cited from earlier work.
In the case of `O=C1CC(c2ccc(Cl)cc2)CN1` (stereo not drawn) [4-(4-chlorophenyl)-pyrrolidin-2-one], the “CNS effect reported in prior publications” value (from here on “CNS effect reported”) was “anticonvulsive effect”.

`NC(=O)N1c2ccccc2C=Cc2ccccc21` [carbamazepine]: the “CNS effect reported” value is recorded as “nootropic effects”.

`CCCC(CCC)C(=O)O` [dipropylacetic acid]: the “CNS effect reported” value is “nootropic effects”.

Take `CCCC(CCC)C(=O)N1CCCC1=O` [N-dipropylacetylpyrrolidin-2-one]: the “CNS effect reported” value was “nootropic effects”.

Another data set can be described thus: in vivo. The conditions noted are these: mouse, ip.
Broadly, the LD50 is the dose at which mortality reaches 50%. `CCCC(CCC)C(=O)N1CC(c2ccccc2)CC1=O` (stereo not drawn) [compound 1] came in with a 50% lethal dose (LD50) of 1630 mg/kg.

In turn, `CCCC(CCC)C(=O)O` [Ca-Valproate] showed an LD50 of 455 mg/kg.

With `COc1ccc(C(=O)N2CC(c3ccccc3)CC2=O)cc1` (stereo not drawn) [compound 3], the LD50 was more than 2000 mg/kg.

The molecule `NC(=O)CN1CCCC1=O` [Piracetam] displayed an LD50 of more than 2000 mg/kg.

`CCOC(=O)C1C(=O)N(C(=O)c2ccc(OC)cc2)CC1c1ccccc1` (stereo not drawn) [compound 6] showed an LD50 of more than 2000 mg/kg.

`CCCC(CCC)C(=O)N1CC(c2ccc(Cl)cc2)CC1=O` (stereo not drawn) [compound 2] yielded an LD50 of more than 2000 mg/kg.

Turning to `O=C(COc1ccc(Cl)cc1)N1CC(c2ccc(Cl)cc2)CC1=O` (stereo not drawn) [compound 5], the LD50 was more than 2000 mg/kg.

`COc1ccc(C(=O)N2CC(c3ccc(Cl)cc3)CC2=O)cc1` (stereo not drawn) [compound 4] gave an LD50 of more than 2000 mg/kg.
